Columns and labels:
[1] = Suspending PPI capsule granules or tablets in calcium carbonate suspension; assay type: physicochemical; conditions: granular contents of capsule (20 mg omeprazole, 30 mg lansoprazole) in 10 cc of 4 gm % or 8 gm % calcium carbonate suspension
Description: More specifically, suspensions of calcium carbonate were produced by dissolving either 400 mg or 800 mg of calcium carbonate in 10 cc of water, resulting in suspensions of 4 gm % and 8 gm %, respectively. In separate 10 cc preparations of either strength of the calcium carbonate suspension, the granular contents of a 20 mg omeprazole capsule, a 30 mg lansoprazole capsule, a 20 mg rabeprazole tablet, and a 40 mg pantoprazole tablet were suspended. In approximately 30 minutes, the granules of the omeprazole and lansoprazole capsules were in complete suspension. In approximately two hours, the contents of the tablets of rabeprazole and pantoprazole had completely suspended.

[2] = test system: gastric acid secretion; conditions: intact granules suspended in orange juice, via gastrostomy tube; cited from earlier work

Cc1c(OCC(F)(F)F)ccnc1C[S+]([O-])c1nc2ccccc2[nH]1 (centres unmarked) [lansoprazole]
time until granules were in complete suspension [1]: approximately 30 minutes | suppression of gastric acid secretion [2]: produced the desired effect of suppressing gastric acid secretion
